Assay results from publication PMC7101356, “Cross-site and cross-platform variability of automated patch clamp assessments of drug effects on human cardiac currents in recombinant cells” (Scientific Reports, 2020).

Columns and labels:
[1] = based on CiPA evaluations; cited from earlier work
peak hNav1.5 = molecular target: T1, peak hNav1.5 (Homo sapiens, UniProt Q14524); experiment: Automated patch clamp, peak hNav1.5 current block; assay type: cell-based; details: for nH (=constant), peak hNav1.5 Na+ current inhibition: Hill slope held constant in fit
T1 construct: expressed in transfected cells; host or cells: HEK293 or CHO, depending on site
T1 sequence (Q14524 whole entry): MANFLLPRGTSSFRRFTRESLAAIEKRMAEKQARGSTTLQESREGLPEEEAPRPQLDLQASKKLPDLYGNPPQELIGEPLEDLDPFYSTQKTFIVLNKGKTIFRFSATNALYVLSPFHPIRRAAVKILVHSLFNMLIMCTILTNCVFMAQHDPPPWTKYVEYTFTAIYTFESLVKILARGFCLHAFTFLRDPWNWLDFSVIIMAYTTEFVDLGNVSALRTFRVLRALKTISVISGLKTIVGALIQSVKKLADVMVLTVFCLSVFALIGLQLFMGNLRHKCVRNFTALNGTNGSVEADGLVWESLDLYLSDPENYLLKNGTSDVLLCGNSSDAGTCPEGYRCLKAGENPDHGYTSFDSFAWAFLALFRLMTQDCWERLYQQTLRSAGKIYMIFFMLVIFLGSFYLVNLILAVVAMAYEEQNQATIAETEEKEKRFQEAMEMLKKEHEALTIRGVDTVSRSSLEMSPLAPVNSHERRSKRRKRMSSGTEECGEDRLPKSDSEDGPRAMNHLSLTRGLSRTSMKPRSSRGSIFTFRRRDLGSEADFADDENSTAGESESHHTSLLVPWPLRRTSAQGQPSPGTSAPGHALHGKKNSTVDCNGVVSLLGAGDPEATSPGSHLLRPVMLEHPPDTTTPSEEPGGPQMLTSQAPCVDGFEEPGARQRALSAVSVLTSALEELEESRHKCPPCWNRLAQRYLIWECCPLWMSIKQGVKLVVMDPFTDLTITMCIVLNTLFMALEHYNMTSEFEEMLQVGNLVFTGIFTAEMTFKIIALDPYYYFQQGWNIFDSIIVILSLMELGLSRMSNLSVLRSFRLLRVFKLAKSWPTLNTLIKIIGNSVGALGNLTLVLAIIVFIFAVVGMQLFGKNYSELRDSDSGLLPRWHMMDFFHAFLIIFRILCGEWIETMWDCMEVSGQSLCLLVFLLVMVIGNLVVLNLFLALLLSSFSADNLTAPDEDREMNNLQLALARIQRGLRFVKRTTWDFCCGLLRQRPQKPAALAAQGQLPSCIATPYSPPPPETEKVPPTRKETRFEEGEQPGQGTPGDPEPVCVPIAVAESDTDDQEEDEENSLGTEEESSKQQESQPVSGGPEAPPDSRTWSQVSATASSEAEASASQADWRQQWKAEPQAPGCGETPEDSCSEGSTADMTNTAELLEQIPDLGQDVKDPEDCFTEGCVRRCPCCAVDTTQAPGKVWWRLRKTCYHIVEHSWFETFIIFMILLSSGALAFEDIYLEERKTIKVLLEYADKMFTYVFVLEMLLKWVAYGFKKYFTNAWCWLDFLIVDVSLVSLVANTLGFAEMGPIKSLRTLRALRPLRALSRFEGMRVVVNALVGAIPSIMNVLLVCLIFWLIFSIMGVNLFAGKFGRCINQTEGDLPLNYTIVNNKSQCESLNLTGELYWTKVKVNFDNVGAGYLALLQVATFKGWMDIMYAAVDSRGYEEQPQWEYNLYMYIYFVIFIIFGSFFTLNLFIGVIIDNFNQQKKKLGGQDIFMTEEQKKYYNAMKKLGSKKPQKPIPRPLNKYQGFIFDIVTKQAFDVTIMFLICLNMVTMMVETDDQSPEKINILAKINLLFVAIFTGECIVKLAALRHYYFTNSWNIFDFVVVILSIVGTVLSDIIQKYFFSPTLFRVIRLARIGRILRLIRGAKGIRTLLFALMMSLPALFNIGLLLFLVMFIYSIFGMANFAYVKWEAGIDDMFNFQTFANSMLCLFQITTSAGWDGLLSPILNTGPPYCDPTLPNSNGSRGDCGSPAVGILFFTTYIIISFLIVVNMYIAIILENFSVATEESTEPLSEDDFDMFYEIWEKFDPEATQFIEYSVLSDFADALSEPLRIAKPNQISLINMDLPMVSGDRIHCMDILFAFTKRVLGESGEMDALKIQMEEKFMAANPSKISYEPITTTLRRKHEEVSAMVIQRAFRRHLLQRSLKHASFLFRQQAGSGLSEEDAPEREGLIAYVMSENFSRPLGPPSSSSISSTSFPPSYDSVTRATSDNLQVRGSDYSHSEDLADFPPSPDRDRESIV
Description: Peak current was measured during the depolarizing step to −15 mV. Leak current was measured after applying a saturating concentration of a blocker such as lidocaine (2 mM) at the end of each experiment to completely block hNav1.5 current.
(§1) Concentration-response relationships for each test article were independently investigated, i.e., each cell received only one test article, typically evaluating multiple concentrations in a cumulative fashion (lowest to highest concentrations). However, some platforms tested only one concentration per well. Each concentration response was based on a minimum of four concentrations, with a minimum of three wells used for each concentration. In cases of high variability, more cells per concentration were recorded. Prior to drug addition, cells received an addition of vehicle to measure non-test article-related effects such as addition artifacts. At the end of the experiment, a supramaximal concentration of a known inhibitory reference compound was applied to assess leak current and appropriate responsiveness of the test system.
(§2) The steady state current at each concentration was used to determine the concentration-response relationships. Mean concentration-response data were fitted to a standard sigmoidal four-parameter logistic equation (GraphPad Prism 7; GraphPad Inc., La Jolla, CA) of the form: Y=Bottom+(Top−Bottom)/(1+10^∧(LogIC50−X)∗HillSlope) where Y is the current inhibition (in % of pre-drug control), X is the logarithm of drug concentration, and IC50 is the drug concentration producing half-maximal current inhibition. Curve fitting was performed using the following constraints: Top = 100%, Bottom = 0%, Hill Slope <2. No curve fitting was performed in cases with an obvious lack of a concentration-dependent current inhibition and/or small effect size (approximately ≤20%).

late hNav1.5 = molecular target: T2, late hNav1.5 (Homo sapiens, UniProt Q14524); experiment: Automated patch clamp, late hNav1.5 current block (ATX-II activated); assay type: cell-based; details: for Late hNav1.5 Na+ current inhibition, Mean: 1.00E-05 mol/L
T2 construct: expressed in transfected cells; host or cells: HEK293 or CHO, depending on site
T2 sequence (Q14524 whole entry): as above
Description: However, all external solutions contained 30 nM ATX-II in order to activate late current. Late current was measured at its maximum during the repolarizing ramp.
as §1, §2

hCav1.2 = hCav1.2 (Homo sapiens, UniProt Q13936); experiment: Automated patch clamp, hCav1.2 current block; details: for IC50: log IC50, half-maximal inhibitory concentration
Description: Peak current was measured during the step to 0 mV. Leak current was measured after applying a saturating concentration of a blocker such as cadmium (200 µM) at the end of each experiment to completely block hCav1.2 current.
Concentration-response relationships for each test article were independently investigated, i.e., each cell received only one test article, typically evaluating multiple concentrations in a cumulative fashion (lowest to highest concentrations). However, some platforms tested only one concentration per well. Each concentration response was based on a minimum of four concentrations, with a minimum of three wells used for each concentration. In cases of high variability, more cells per concentration were recorded. Prior to drug addition, cells received an addition of vehicle to measure non-test article-related effects such as addition artifacts. At the end of the experiment, a supramaximal concentration of a known inhibitory reference compound was applied to assess leak current and appropriate responsiveness of the test system. While it was recommended that a separate group of cells (n ≥ 3) be recorded for each experimental day to determine the baseline response to vehicle and to address day-to-day variability, this was not verified.
These criteria were applied to all APC platforms.
as §2

[2] = site s02_p2, corrected for rundown

CN(C)CCCN1c2ccccc2Sc2ccc(Cl)cc21 [cpz, chlorpromazine]
TdP Risk Category [1]: Intermediate

CN(CCOc1ccc(NS(C)(=O)=O)cc1)CCc1ccc(NS(C)(=O)=O)cc1 [dof, dofetilide]
TdP Risk Category [1]: High

C=C[C@H]1C[N@@]2CC[C@H]1C[C@@H]2[C@@H](O)c1ccnc2ccc(OC)cc12 [qui, quinidine]
Peak hNav1.5 Na+ current inhibition, Mean (peak hNav1.5; site_platform s01_p1, 1.00E-05 mol/L): 72.9%
Peak hNav1.5 Na+ current inhibition, Mean (peak hNav1.5; site_platform s01_p1, 1.00E-07 mol/L): 51.7%
nH (=constant), peak hNav1.5 Na+ current inhibition (peak hNav1.5; site_platform s01_p1): 1
nH (=constant), peak hNav1.5 Na+ current inhibition (peak hNav1.5; site_platform s02_p2): 1
nH (=constant), peak hNav1.5 Na+ current inhibition (peak hNav1.5; site_platform s04_p3): 1
nH (=constant), peak hNav1.5 Na+ current inhibition (peak hNav1.5; site_platform s06_p4): 1
nH (=constant), peak hNav1.5 Na+ current inhibition (peak hNav1.5; site_platform s07_p6): 1
nH, Hill slope, peak hNav1.5 inhibition (peak hNav1.5; site_platform s10_p3): 1
nH, Hill slope, peak hNav1.5 inhibition (peak hNav1.5; site_platform s11_p1): 1
Peak hNav1.5 Na+ current inhibition, Mean (peak hNav1.5; site_platform s11_p1, 1.00E-05 mol/L): 30.0%
nH, Hill slope, peak hNav1.5 inhibition (peak hNav1.5; site_platform s12_p2): 1
nH, Hill slope, peak hNav1.5 inhibition (peak hNav1.5; site_platform s13_p2): 1
nH, Hill slope, peak hNav1.5 inhibition (peak hNav1.5; site_platform s14_p1): 1
nH, Hill slope, peak hNav1.5 inhibition (peak hNav1.5; site_platform s15_p1): 1
Peak hNav1.5 Na+ current inhibition, Mean (peak hNav1.5; site_platform s15_p1, 1.00E-05 mol/L): 52.7%
nH, Hill slope, peak hNav1.5 inhibition (peak hNav1.5; site_platform s16_p3): 1
nH, Hill slope, peak hNav1.5 inhibition (peak hNav1.5; site_platform s17_p1): 1
Peak hNav1.5 Na+ current inhibition, Mean (peak hNav1.5; site_platform s17_p1, 1.00E-05 mol/L): 54.0%
nH, Hill slope, peak hNav1.5 inhibition (peak hNav1.5; site_platform s18_p1): 1
nH, Hill slope, peak hNav1.5 inhibition (peak hNav1.5; site_platform s19_p3): 1
TdP Risk Category [1]: High
nH, Hill slope, late hNav1.5 inhibition (late hNav1.5; site_platform s06_p4): 0.91
Late hNav1.5 Na+ current inhibition, Mean (late hNav1.5; site_platform s06_p4): 78.1%
nH, Hill slope, late hNav1.5 inhibition (late hNav1.5; site_platform s07_p6): 0.74
Late hNav1.5 Na+ current inhibition, Mean (late hNav1.5; site_platform s07_p6): 46.2%
nH, Hill slope, late hNav1.5 inhibition (late hNav1.5; site_platform s13_p2): 0.63
nH, Hill slope, late hNav1.5 inhibition (late hNav1.5; site_platform s14_p1): 2.00
Late hNav1.5 Na+ current inhibition, Mean (late hNav1.5; site_platform s14_p1): 68.8%

COc1ccccc1OCC(O)CN1CCN(CC(=O)Nc2c(C)cccc2C)CC1 (stereo not shown) [ran, ranolazine]
IC50 (hCav1.2; [2]): 501 µM
IC50 (hCav1.2; site s06_p4): 186 µM
IC50 (hCav1.2; site s11_p1): 1350 µM
IC50 (hCav1.2; site s14_p1): 245 µM
IC50 (hCav1.2; site s16_p3): 3090 µM
IC50 (hCav1.2; site s18_p1): 148 µM
Peak hCav1.2 Ca2+ current inhibition, Mean (hCav1.2; site s01_p1, 1.00E-04 mol/L): 9.0%
Peak hCav1.2 Ca2+ current inhibition, Mean (hCav1.2; site s01_p1, 3.00E-06 mol/L): -2.7%
nH, Hill slope (hCav1.2; [2]): 0.74
Peak hCav1.2 Ca2+ current inhibition, Mean (hCav1.2; site s02_p2, corrected for rundown, 1.00E-04 mol/L): 22.9%
Peak hCav1.2 Ca2+ current inhibition, Mean (hCav1.2; site s02_p2, corrected for rundown, 3.00E-06 mol/L): -1.8%
nH, Hill slope (hCav1.2; site s06_p4): 2.00
Peak hCav1.2 Ca2+ current inhibition, Mean (hCav1.2; site s06_p4, 1.00E-04 mol/L): 23.0%
Peak hCav1.2 Ca2+ current inhibition, Mean (hCav1.2; site s06_p4, 3.00E-06 mol/L): 12.9%
nH, Hill slope (hCav1.2; site s11_p1): 0.32
Peak hCav1.2 Ca2+ current inhibition, Mean (hCav1.2; site s11_p1, 1.00E-04 mol/L): 33.0%
Peak hCav1.2 Ca2+ current inhibition, Mean (hCav1.2; site s11_p1, 3.00E-06 mol/L): 14.1%
nH, Hill slope (hCav1.2; site s14_p1): 1.42
Peak hCav1.2 Ca2+ current inhibition, Mean (hCav1.2; site s14_p1, 1.00E-04 mol/L): 21.7%
Peak hCav1.2 Ca2+ current inhibition, Mean (hCav1.2; site s14_p1, 3.00E-06 mol/L): -1.7%
nH, Hill slope (hCav1.2; site s16_p3): 0.24
Peak hCav1.2 Ca2+ current inhibition, Mean (hCav1.2; site s16_p3, 1.00E-04 mol/L): 31.8%
Peak hCav1.2 Ca2+ current inhibition, Mean (hCav1.2; site s16_p3, 3.00E-06 mol/L): 16.5%
nH, Hill slope (hCav1.2; site s18_p1): 2.00
Peak hCav1.2 Ca2+ current inhibition, Mean (hCav1.2; site s18_p1, 1.00E-04 mol/L): 36.1%
Peak hCav1.2 Ca2+ current inhibition, Mean (hCav1.2; site s18_p1, 3.00E-06 mol/L): -14.2%
TdP Risk Category [1]: Low

CC(C)(C)c1ccc(C(O)CCCN2CCC(C(O)(c3ccccc3)c3ccccc3)CC2)cc1 (stereo not shown) [ter, terfenadine]
nH, Hill slope (hCav1.2; site s01_p1): 1.62
Peak hCav1.2 Ca2+ current inhibition, Mean (hCav1.2; site s01_p1, 3.00E-07 mol/L): 35.6%
nH, Hill slope (hCav1.2; [2]): 1.40
Peak hCav1.2 Ca2+ current inhibition, Mean (hCav1.2; site s02_p2, corrected for rundown, 3.00E-07 mol/L): 74.7%
nH, Hill slope (hCav1.2; site s04_p3): 0.41
Peak hCav1.2 Ca2+ current inhibition, Mean (hCav1.2; site s04_p3, 3.00E-07 mol/L): 32.9%
nH, Hill slope (hCav1.2; site s16_p3): 0.65
Peak hCav1.2 Ca2+ current inhibition, Mean (hCav1.2; site s16_p3, 3.00E-07 mol/L): 52.1%
nH, Hill slope (hCav1.2; site s18_p1): 2.00
Peak hCav1.2 Ca2+ current inhibition, Mean (hCav1.2; site s18_p1, 3.00E-07 mol/L): 56.4%
